Reference: publication PMC6968685 (Journal of Enzyme Inhibition and Medicinal Chemistry, 2020)

Columns and labels:
[1] = test system: L. donovani (MHOM/IN/00/DEVI) promastigotes; assay: In vitro antileishmanial activity, MTT assay on promastigotes; format: cell-based; conditions: Leishmania donovani, 72 h incubation, ≥10 = no activity noted at the highest concentration tested
Procedure, shortened: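 Log-phase L. donovani MHOM/IN/00/DEVI promastigotes (10^6/ml, Schneider's + 20% FCS) were exposed to graded compound concentrations (DMSO <0.5% v/v) for 72 h at 27 °C, in duplicate. Growth measured by MTT reduction (4 h, A570 nm); IC50 obtained by regression.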

[2] = test system: T. brucei brucei AnTat 1.9; assay: In vitro antitrypanosomal activity, Alamar Blue assay; format: cell-based; conditions: Trypanosoma brucei; slender bloodstream trypomastigotes, AnTat 1.9 strain; read-out: Trypanosoma brucei brucei IC50 values, Trypanos Antat 1.9
Procedure, shortened: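 Bloodstream parasites (2000/well) in supplemented MEM with 20% horse serum exposed to compound in duplicate for 69 h at 37 °C, then Alamar Blue added for 5 h; fluorescence read at ex 530/em 590 nm. IC50 by nonlinear regression, from three independent experiments.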

[3] = test system: human HepG2 cells; assay: Cytotoxicity evaluation, MTT; format: cell-based; conditions: HepG2 cells; 72 h
Procedure, shortened: (§1)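 HepG2 hepatocarcinoma cells exposed to compound in duplicate, then viability measured by MTT reduction (0.5 mg/ml), formazan dissolved in DMSO and read at 570 nm against 630 nm. Viability expressed as percent of untreated cells; CC50 taken from dose-response curve, doxorubicin as positive control.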

[4] = test system: FPf1T (DNA, G4) GGGTTTAGGGTTTAGGGTTTAGGG; assay: FRET melting; conditions: 10 mM K+, 90 mM Li+; 10 mM lithium cacodylate pH 7.2; 2 µM compound, 0.2 µM oligonucleotide
[5] = test system: FPf8T (DNA, G4) GGGTTCAGGGTTCAGGGTTCAGGG; assay: FRET melting; conditions: 10 mM K+, 90 mM Li+; 10 mM lithium cacodylate pH 7.2; 2 µM compound, 0.2 µM oligonucleotide
[6] = test system: FtrypBT (FEBR1T; FtryBT) (DNA, G4) GGGCAGGGGGTGATGGGGAGGAGCCAGGG; assay: FRET melting; conditions: 10 mM K+, 90 mM Li+; 10 mM lithium cacodylate pH 7.2; 2 µM compound, 0.2 µM oligonucleotide
[7] = test system: F21T (DNA, G4) GGGTTAGGGTTAGGGTTAGGG; assay: FRET melting; conditions: 10 mM K+, 90 mM Li+; 10 mM lithium cacodylate pH 7.2; 2 µM compound, 0.2 µM oligonucleotide
[8] = test system: FdxT (DNA, duplex, hexaethylene glycol linker between nucleotides 10 and 11) TATAGCTATATATAGCTATA; assay: FRET melting; conditions: 10 mM K+, 90 mM Li+; 10 mM lithium cacodylate pH 7.2; 2 µM compound, 0.2 µM oligonucleotide
[9] = test system: P. falciparum CQ-resistant strain W2; assay: In vitro antiplasmodial activity, SYBR Green I fluorescence-based method, strain W2; format: cell-based; conditions: Plasmodium falciparum; chloroquine-resistant strain W2; 48 h incubation; read-out: P. falciparum strains IC50 values, W2
Procedure, shortened: (§2)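 P. falciparum 3D7 and W2 cultured in human erythrocytes in RPMI with 0.5% Albumax I at 37 °C, exposed 48 h to compounds tested […]. Parasite DNA read by SYBR Green I fluorescence (ex 485/em 535 nm); IC50 by non-linear regression, mean of three independent experiments.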

[10] = test system: P. falciparum CQ-sensitive strain 3D7; assay: In vitro antiplasmodial activity, SYBR Green I fluorescence-based method, strain 3D7; format: cell-based; conditions: Plasmodium falciparum; chloroquine-sensitive strain 3D7; 48 h incubation; read-out: P. falciparum strains IC50 values, 3D7
Procedure, shortened: as §2

[11] = Cytotoxicity evaluation, MTT; format: cell-based, human; conditions: human
Procedure, shortened: as §1

[12] = test system: Plasmodium telomeric sequence FPf1T G-quadruplex; assay: FRET melting experiments, FPf1T; format: binding, P. falciparum; conditions: 2 μM compound, 0.2 μM oligonucleotide, K+ conditions
Experimental: (§3) These were performed with dual-labelled oligonucleotides mimicking the Plasmodium telomeric sequences FPf1T [FAM-5′(GGGTTTA)3-GGG3′-TAMRA] and FPf8T [FAM-5′ (GGGTTCA)3GGG3′-TAMRA], the Trypanosoma 9 and 11 chromosomic sequence FTrypBT (also named FEBR1T) [FAM-5′[…]3′-TAMRA], the human telomeric sequence F21T [FAM-(GGGTTA)3-GGG3′-TAMRA], and the human duplex sequence FdxT [FAM5′-[…]-hexaethyleneglycol-[…]3′-TAMRA][51]^,[52]. The oligonucleotides were pre-folded in 10 mM lithium cacodylate buffer (pH 7.2), with 10 mM KCl and 90 mM LiCl (K^+condition). The FAM emissions were recorded at 516 nm using a 492-nm excitation wavelength in the absence and presence of a single compound as a function of temperature (25–95 °C) in 96-well microplates by using a Stratagene MX3000P real-time PCR device at a rate of 1 °C·min^−1. Data were normalised between 0 and 1, and the required temperature for half-denaturation of oligonucleotides corresponding to the emission value of 0.5 was taken as the Tm. […] For each compound, three independent experiments were carried out.

[13] = test system: Plasmodium telomeric sequence FPf8T G-quadruplex; assay: FRET melting experiments, FPf8T; format: binding, P. falciparum; conditions: 2 μM compound, 0.2 μM oligonucleotide, K+ conditions
Experimental: as §3

[14] = test system: Trypanosoma 9 and 11 chromosomic sequence FTrypBT (FEBR1T) G-quadruplex; assay: FRET melting experiments, FtrypBT; format: binding, T. brucei brucei; conditions: 2 μM compound, 0.2 μM oligonucleotide, K+ conditions
Experimental: as §3

[15] = test system: human telomeric sequence F21T G-quadruplex; assay: FRET melting experiments, F21T; format: binding; conditions: 2 μM compound, 0.2 μM oligonucleotide, K+ conditions
Experimental: as §3

[16] = test system: human duplex sequence FdxT; assay: FRET melting experiments, FdxT duplex control; format: binding; conditions: 2 μM compound, 0.2 μM oligonucleotide, K+ conditions
Experimental: as §3

Row | Compound | IC50 [1] [µM] | IC50 [2] [µM] | CC50 [3] [µM] | ΔTm [4] [°C] | ΔTm [5] [°C] | ΔTm [6] [°C] | ΔTm [7] [°C] | ΔTm [8] [°C] | IC50 [9] [µM] | IC50 [10] [µM] | CC50 at 72 h [11] [µM] | ΔTm FPf1T [12] [°C] | ΔTm FPf8T [13] [°C] | ΔTm FtrypBT [14] [°C] | ΔTm F21T [15] [°C] | ΔTm FdxT [16] [°C]
1 | N=C(N)c1ccc(OCCCCCOc2ccc(C(=N)N)cc2)cc1 [Pentamidine, reference compound] | 5.5 ± 0.8 | 0.0002 ± 6e-05 | 2.3 ± 0.5 | – | – | – | – | – | – | – | – | – | – | – | – | –
2 | COc1ccc2cc(-c3ccc(CNCCCCN(C)C)cc3)nc(-c3ccc(CNCCCCN(C)C)cc3)c2c1 | – | – | – | 27.3 ± 1.1 | 26.6 ± 0.2 | 24.0 ± 0.3 | 22.2 ± 0.1 | 4.1 ± 0.3 | – | – | – | – | – | – | – | –
3 | CN(C)CCCNCc1ccc(-c2cc(-c3ccc(CNCCCN(C)C)cc3)c3ccccc3n2)cc1 [Compound 1b, 2,4-Bis{4-[(3-dimethylaminopropyl)aminomethyl]phenyl}quinoline] | ≥ 10 | 0.82 ± 0.022 | – | – | – | – | – | – | 0.88 ± 0.14 | 0.47 ± 0.06 | 4.09 ± 0.2 | 8.4 ± 1.0 | 9.9 ± 0.1 | 7.8 ± 1.2 | 12.7 ± 0.6 | 0.0 ± 0.7
4 | COc1ccc2c(-c3ccc(CNCCCCN(C)C)cc3)nc(-c3ccc(CNCCCCN(C)C)cc3)cc2c1 [Compound 2i, 6-Methoxy-1,3-bis{4-[(4-dimethylaminobutyl)aminomethyl]phenyl}isoquinoline] | ≥ 10 | 0.64 ± 0.323 | – | – | – | – | – | – | 2.4 ± 0.49 | 8.46 ± 0.66 | 10.8 ± 0.8 | 12.8 ± 1.3 | 12.9 ± 1.0 | 8.4 ± 0.3 | 23.2 ± 0.6 | 0.9 ± 0.1
5 | COc1ccc2nc(-c3ccc(CNCCCCN(C)C)cc3)nc(-c3ccc(CNCCCCN(C)C)cc3)c2c1 | – | – | – | 19.8 ± 0.6 | – | – | – | – | – | – | – | – | – | – | – | –
6 | COc1ccc2c(-c3ccc(CNCCCN(C)C)cc3)nc(-c3ccc(CNCCCN(C)C)cc3)cc2c1 [Compound 2j, 6-Methoxy-1,3-bis{4-[(3-dimethylaminopropyl)aminomethyl]phenyl}isoquinoline] | ≥ 10 | 0.59 ± 0.131 | – | – | – | – | – | – | 5.09 ± 0.76 | 7.21 ± 0.59 | 2.16 ± 0.2 | 15.3 ± 0.7 | 15.0 ± 0.6 | 12.2 ± 1.1 | 13.9 ± 0.1 | 0.5 ± 0.3
7 | COc1ccc2cc(-c3ccc(CNCCCN(C)C)cc3)nc(-c3ccc(CNCCCN(C)C)cc3)c2c1 [Compound 2f, 7-Methoxy-1,3-bis{4-[(3-dimethylaminopropyl)aminomethyl]phenyl}isoquinoline] | ≥ 10 | 0.52 ± 0.072 | – | – | – | – | – | – | 4.76 ± 0.66 | 1.47 ± 0.24 | 2.12 ± 0.2 | 20.3 ± 1.1 | 18.5 ± 0.5 | 16.9 ± 1.1 | 15.8 ± 0.1 | 0.8 ± 0.3
